Converted amounts (≈) assume the structure as drawn.
Legend:
[1] = biological target: T1, Indoleamine 2,3-dioxygenase 1 (Homo sapiens, UniProt P14902); assay: Inhibition of IDO1 (unknown origin) using L-tryptophan substrate incubated for 60 mins by HPLC; details: read-out: IC50
[2] = biological target: T1, Indoleamine 2,3-dioxygenase 1; assay: Inhibition of IDO1 (unknown origin) using L-tryptophan substrate incubated for 60 mins in presence of 5 mM GSH by HPLC
[3] = biological target: Tryptophan 2,3-dioxygenase (Mus musculus, UniProt P48776); assay: Inhibition of mouse TDO expressed in mouse P815B cells using L-tryptophan substrate incubated for 24 hrs by HPLC based cellular assay; format: cell-based
[4] = Cytotoxicity against mouse P815B cells after 24 hrs by MTS/PMS assay; details: P815B cells
[5] = biological target: Indoleamine 2,3-dioxygenase 1 (Mus musculus, UniProt P28776); assay: Inhibition of mouse IDO1 expressed in mouse P815B cells using L-tryptophan substrate incubated for 18 hrs by HPLC based cellular assay; format: cell-based
[6] = biological target: T1, Indoleamine 2,3-dioxygenase 1; assay: Inhibition of IDO1 (unknown origin) using L-tryptophan substrate incubated for 60 mins in presence of 0.01% Triton-X by HPLC; details: read-out: IC50
[7] = Solubility of the compound in pH 6.5 phosphate buffer containing 5% DMSO; details: phosphate buffer containing 5% DMSO

T1 sequence (P14902 whole entry): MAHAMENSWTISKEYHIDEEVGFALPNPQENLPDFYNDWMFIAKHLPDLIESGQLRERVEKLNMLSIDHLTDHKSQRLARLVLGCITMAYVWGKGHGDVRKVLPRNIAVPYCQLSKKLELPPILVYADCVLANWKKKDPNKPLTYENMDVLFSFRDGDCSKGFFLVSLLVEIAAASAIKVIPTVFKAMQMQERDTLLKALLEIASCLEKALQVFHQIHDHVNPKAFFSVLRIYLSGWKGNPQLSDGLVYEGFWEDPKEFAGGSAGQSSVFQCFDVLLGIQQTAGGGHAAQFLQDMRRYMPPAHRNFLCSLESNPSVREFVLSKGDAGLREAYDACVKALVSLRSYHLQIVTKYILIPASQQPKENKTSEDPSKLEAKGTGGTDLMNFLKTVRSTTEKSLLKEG
Chain of Indoleamine 2,3-dioxygenase 1 (Mus musculus, UniProt P28776) (P28776 whole entry): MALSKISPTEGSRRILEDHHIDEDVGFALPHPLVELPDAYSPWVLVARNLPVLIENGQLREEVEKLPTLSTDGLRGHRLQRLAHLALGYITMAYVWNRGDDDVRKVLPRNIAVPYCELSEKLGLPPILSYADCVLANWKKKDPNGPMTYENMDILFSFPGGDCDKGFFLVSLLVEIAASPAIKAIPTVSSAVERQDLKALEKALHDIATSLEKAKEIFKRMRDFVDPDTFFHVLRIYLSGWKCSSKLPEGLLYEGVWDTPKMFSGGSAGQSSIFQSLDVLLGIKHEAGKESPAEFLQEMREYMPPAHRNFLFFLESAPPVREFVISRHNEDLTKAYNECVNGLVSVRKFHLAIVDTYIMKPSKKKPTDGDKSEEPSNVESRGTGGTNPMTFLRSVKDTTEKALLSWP
Chain of Tryptophan 2,3-dioxygenase (P48776 whole entry): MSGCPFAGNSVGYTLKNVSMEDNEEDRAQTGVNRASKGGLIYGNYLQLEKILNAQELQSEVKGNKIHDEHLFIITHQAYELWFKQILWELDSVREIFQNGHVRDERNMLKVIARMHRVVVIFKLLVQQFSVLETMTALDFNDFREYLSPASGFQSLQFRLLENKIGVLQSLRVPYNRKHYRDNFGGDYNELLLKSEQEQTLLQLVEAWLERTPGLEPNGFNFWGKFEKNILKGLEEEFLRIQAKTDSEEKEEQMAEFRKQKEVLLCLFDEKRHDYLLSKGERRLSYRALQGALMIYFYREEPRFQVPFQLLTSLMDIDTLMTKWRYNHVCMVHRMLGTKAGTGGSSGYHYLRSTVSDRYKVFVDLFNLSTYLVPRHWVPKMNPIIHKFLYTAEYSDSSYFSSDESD

| SMILES | IC50 [1] | IC50 [2] | IC50 ([3]; p815b) | CC50 at 24 h [4] | IC50 ([5]; p815b) | IC50 [6] | solubility [7] | IC50 ([3]; read-out: IC50) | IC50 ([5]; read-out: IC50) |
| --- | --- | --- | --- | --- | --- | --- | --- | --- | --- |
| CCOC(=O)c1ccc(-n2sccc2=O)cc1 | 15 µM | 100 µM | Not Active | 10 µM | Not Active | 11 µM | 500 µM (≈ 125 µg/mL) |  |  |
| Cc1ccc(-n2nnnc2C/C=N/Nc2ccc(Cl)cc2)cc1 | 54 µM | 31 µM |  | 10 µM |  | 53 µM | 12.5 µM (≈ 4.08 µg/mL) | 4.2 µM | 0.34 µM |

From ChEMBL document CHEMBL3351924, “Detailed analysis and follow-up studies of a high-throughput screening for indoleamine 2,3-dioxygenase 1 (IDO1) inhibitors” (Eur J Med Chem, 2014)
